The test system of assay [1] is 4T1 cells. Conditions: cited from earlier work.
The subject of assay [2] is triple negative breast cancer tumor. Briefly: Barcode analysis in live and dead tumor cells after injection of liposome mixes. The class given is in vivo, BALB/c female mice. Conditions: 5%, 1% or 0.1% of ETD liposome mixes; 48 hours post injection; patent regards it as likely artifact. The text has this: FIGS. 1A-C: Detection of barcodes from liposome mixes with equal relative drug concentrations. Bar charts showing the potency of gemcitabine, cisplatin and doxorubicin against triple negative breast cancer tumors when the drugs are provided at (1A) 5%, (1B) 1%, and (1C) 0.1% of the effective therapeutic dose (ETD). Potency of the drugs was defined as the ratio of the amount of a barcode in dead cells to the amount of that barcode in live cells.
Each drug has its own specific effective therapeutic dose […], and in order to test efficacy it is reasonable that each liposome mix (a mix of all three types of liposomes to be injected together) should have the same relative amount of each drug. That is, in order to determine an ideal dose, batches of mixed liposomes were generated in which all three drugs were present in a concentration that was either 5%, 1% or 0.1% of the effective therapeutic dose. Table 2 provides the amounts (in ul) of each liposome batch that were added to the mix in order to provide each total dose.
Cell from a triple negative breast cancer tumor were transplanted to the fat pad of BALB/c female mice and allowed to grow to form tumors in the mice. The mice were separated into 3 groups and then each group was injected with the 5%, 1% or 0.1% liposome mixes. […]

Assay [3] has as its system 4T1 cells. To be noted: cited from earlier work. The source holds these as a separate data set.

Where two headings read alike, the source gives them in different places.

Consider `N.N.[Cl][Pt][Cl]` [cisplatin], for which the “Sensitivity of 4T1 cells” value in the assay on 4T1 cells [1] is reported as “highly sensitive”.
`COc1cccc2c1C(=O)c1c(O)c3c(c(O)c1C2=O)C[C@@](O)(C(=O)CO)C[C@@H]3O[C@H]1C[C@H](N)[C@H](O)[C@H](C)O1` [doxorubicin]: in the assay with 4T1 cells [1], the “Resistance of 4T1 cells” value is “become resistant” and the “Sensitivity of 4T1 cells” value is “less so”.
As for `Nc1ccn([C@@H]2O[C@H](CO)[C@@H](O)C2(F)F)c(=O)n1` [Gemcitabine], in assay [2], the “Effectiveness relative to the other two drugs” value is reported as above 10 fold and the “Potency (ratio of barcode in dead cells to barcode in live cells), ranking” value is “most effective treatment”. For the same molecule, the “Effect on tumor growth” value in the assay on 4T1 cells [3] (at later time points) is on record as “not be effective”. Also, in the assay with 4T1 cells [3] (within the first couple of days of treatment), the “Effect on tumor growth” value was “retards tumor growth”.

The values are drawn from US11788146B2, “Methods for therapeutics prescreening in bodily fluids” (BARCODE DIAGNOSTICS LTD., priority 2017, dated 2023).
